Measured values reported in patent publication US4533657A, “Analgesic dipeptide amides and method of use and composition thereof” (Sterling Drug Inc., priority 1982, dated 1985).
Like-named read-outs stand apart in the source and are kept apart here.

Experiments:
[1] = tested on: guinea pig ileum longitudinal muscle with myenteric plexus; assay: Guinea Pig Ileum Test (electrically stimulated longitudinal muscle, inhibition of twitch height); assay type: cell-based; conditions: ratio of IC50 of reference Met5-enkephalin (given as 100) to IC50 of test compound, same preparation, averaged over four preparations
Experimental: Adult male guinea pigs (Charles River, Hartley strain) weighing 300-500 g. are decapitated, and the terminal ileum is exposed by reflecting the overlying cecum, severed at the ileocecal juncture, and removed while cutting the mesenteric attachments to avoid excessive traction on the tissue. The ileum (about 30 cm. in length) is transferred to a beaker containing warm modified Krebs-Henseleit solution (118 mM sodium chloride, 4.75 mM potassium chloride, 2.45 mM calcium chloride, 1.19 mM potassium dihydrogen phosphate, 1.2 mM magnesium sulfate, 25 mM sodium bicarbonate, 11 mM glucose, 20 μM choline chloride and 0.125 μM pyrilamine maleate). The terminal (aboral) portion (about 10 cm. in length) is discarded, and segments (3-4 cm. in length) are cut from the remainder and gently slid onto a glass rod (5-6 mm. in diameter) and arranged so that the mesenteric attachment is in a straight line. A cotton swab moistened in the solution is then carefully used to separate the longitudinal muscle from the underlying circular muscle. The longitudinal muscle and adhering myenteric plexus is then gently removed from the remaining tissue with forceps.
Strips of thus prepared longitudinal muscle are mounted in a double-jacketed organ bath (5 ml.) under tension (1.0 g.), connected to isometric transducers (Grass FT 0.03), bathed in the modified Krebs-Henseleit solution described above, aerated with oxygen-carbon dioxide (95:5) and maintained at 37° C.
Stimulators (Grass S-44) are set to deliver repetitive monphasic square wave field stimulation (supramaximal voltage, 0.10 Hz., 0.25 msec. duration) through platinum ring electrodes at the top and bottom of the bath. Regular contractions of the muscle, which result from electrically-induced liberation of acetylcholine from postganglionic parasympathetic nerves, are recorded on a polygraph (Grass model 5). Following tissue equilibration (45-60 min.) and repeated washing (every 10 min.) an aqueous solution of a reference or test compound is added to the bath in a microliter volume (1.25-250 μl) and reductions in muscle twitch height are recorded. More compound can be added […] first washing the preparation.
From the results a half-maximal inhibitory concentration (IC50) value for the compound is computed by regression analysis of a linear plot of logarithm of concentration against percent of inhibition of twitch height (probits). The ratio of the […] of a reference compound to that of a test compound tested in the same preparation is the molar potency ratio. Usually four preparations are tested simultaneously by the same person (N=4), and the resulting four molar potency ratios are averaged.
The following results were obtained using the examples as test compounds and Met^5 -enkephalin as the reference compound: […]

Male Swiss-Webster mice = assay: Mouse Acetylcholine Writhing Test; assay type: in vivo; conditions: 20 min, subcutaneous, approximate, acetylcholine 3.2 mg./kg. i.p. 20 min after dosing
Experimental: Male Swiss-Webster mice each weighing 18-24 g. are treated subcutaneously (10 ml./kg. injection volume) or orally with the test compound in an aqueous vehicle. Twenty minutes thereafter each mouse is injected intraperitoneally with acetylcholine (3.2 mg./kg.) in aqueous sodium chloride (0.9%). This dose of acetylcholine causes one or more characteristic writhes in the two minute period following injection in control mice which receive the aqueous vehicle not containing the test compound. […] Test compounds are screened at doses of 100 and 30 mg./kg. subcutaneously and 300 and 100 mg./kg. orally using 15 mice at each dose level. ED50 values for active compounds are estimated by probit analysis of quantal scores at four or more dose levels using 15 mice at each dose level.

opiate receptor = conditions: rat brain membranes; cited from earlier work
rat = rat tail flick, cited from earlier work
guinea pig ileum = conditions: cited from earlier work
mouse vas deferens = conditions: cited from earlier work

Molecule | Average Molar Potency Ratio [1] | other results
C[C@@H](NC(=O)[C@@H](N)Cc1ccc(O)cc1)C(=O)NCCc1ccccc1.Cl.O [Example 1, L-tyrosyl-N-(2-phenylethyl)-D-alaninamide monohydrochloride hydrate (4:5)] | 14 | –
C[C@@H](NC(=O)[C@@H](N)Cc1ccc(O)cc1)C(=O)N(C)CCCc1ccccc1.Cl.O [Example 2, L-tyrosyl-N-methyl-N-(3-phenylpropyl)-D-alaninamide monohydrochloride monohydrate] | 9 | ED50 (Male Swiss-Webster mice): > 10 mg/kg
CCN(CCCc1ccccc1)C(=O)[C@@H](C)NC(=O)[C@@H](N)Cc1ccc(O)cc1.Cl [Example 4, L-tyrosyl-N-ethyl-N-(3-phenylpropyl)-D-alaninamide monohydrochloride] | 4 | ED50 (Male Swiss-Webster mice): > 30 mg/kg
C[C@@H](NC(=O)[C@@H](N)Cc1ccc(O)cc1)C(=O)NCCCCc1ccccc1.Cl [Example 5, L-tyrosyl-N-(4-phenylbutyl)-D-alaninamide monohydrochloride] | 12 | –
C[C@@H](NC(=O)[C@@H](N)Cc1ccc(O)cc1)C(=O)NCCCCCc1ccccc1.Cl.O [Example 6, L-tyrosyl-N-(5-phenylpentyl)-D-alaninamide monohydrochloride monohydrate] | 30 | –
C[C@@H](NC(=O)[C@@H](N)Cc1ccc(O)cc1)C(=O)N(CCCc1ccccc1)CCN(C)C.Cl.Cl [Example 7, L-tyrosyl-N-[2-(dimethylamino)ethyl]-N-(3-phenylpropyl)-D-alaninamide dihydrochloride] | 4 | –
C[C@@H](CCc1ccccc1)NC(=O)[C@@H](C)NC(=O)[C@@H](N)Cc1ccc(O)cc1.Cl [Example 8, L-tyrosyl-N-(1-S-methyl-3-phenylpropyl)-D-alaninamide monohydrochloride] | 115 | –
C[C@H](CCc1ccccc1)NC(=O)[C@@H](C)NC(=O)[C@@H](N)Cc1ccc(O)cc1.Cl [Example 9, L-tyrosyl-N-(1-R-methyl-3-phenylpropyl)-D-alaninamide monohydrochloride] | 12 | –
CSCCCN(CCCc1ccccc1)C(=O)[C@@H](C)NC(=O)[C@@H](N)Cc1ccc(O)cc1.CSCCCN(CCCc1ccccc1)C(=O)[C@@H](C)NC(=O)[C@@H](N)Cc1ccc(O)cc1.Cl.Cl.O [Example 10, L-tyrosyl-N-[3-(methylthio)propyl]-N-(3-phenylpropyl)-D-alaninamide monhydrochloride hemihydrate] | 15 | –
C[C@@H](NC(=O)[C@@H](N)Cc1ccc(O)cc1)C(=O)N(CCCc1ccccc1)CCC[S+](C)[O-].Cl (stereo partly drawn) [Example 11, L-tyrosyl-N-[3-(methylsulfinyl)propyl]-N-(3-phenylpropyl)-D-alaninamide monohydrochloride] | 3 | –
C[C@@H](NC(=O)[C@@H](N)Cc1ccc(O)cc1)C(N)=O [H-Tyr-D-Ala-NH2] | – | times less affinity than morphine (opiate receptor): 830 times; times less potent than morphine (rat; intravenously): greater than 10 times; times less potent than morphine (rat; intraventricularly): 200 times
C[C@@H](NC(=O)[C@@H](N)Cc1ccc(O)cc1)C(=O)NCCNCCc1ccccc1 [HTyrD-AlaNH(CH2)2 NH(CH2)2 Phenyl] | – | potency relative to Met-enkephalin (guinea pig ileum): < 1%; potency relative to Met-enkephalin (mouse vas deferens): < 1%
L-tyrosyl-N-(3-phenylpropyl)-D-alaninamide monohydrochloride sesquihydrate [Example 3] | 117 | –
Met^5 -enkephalin [reference compound] | 100 | –
